This is an account of results in US6326020A (priority 1998, dated 2001).

For test [1], the system named is sciatic nerve. More on the design: species or system Sprague-Dawley rat. To be noted: rat, in vivo.
Test [2] concerns sciatic nerve. More on the design: species or system Sprague-Dawley rat. The following applies: rat, in vivo. This is another data set of the same source.
The subject of test [3] is sciatic nerve. More on the design: species or system Sprague-Dawley rat. To be noted: rat, in vivo. This is another data set of the same source.
In test [4] the test system is thermal nociception. The following applies: rat, in vivo.
The test system of test [5] is sciatic nerve. Details: species or system Sprague-Dawley rat. To be noted: rat, in vivo. This is another data set of the same source.
Test [6] has as its system nerve block. Details: species or system human. To be noted: in vivo.
The test system of test [7] is sciatic nerve. To be noted: rat, in vivo.

Turning to `CCCCN1CCCCC1C(=O)Nc1c(C)cccc1C` (centres unmarked) [Bupivacaine, bupivacaine], the “Duration of Effective Block, Hop” value in test [1] was 143 ± 48 min. For the same compound, in test [2], the “"Missed block" rate” value was 0%, the Modalities impaired result was “all four modalities were impaired in all rats” and the “Rate of successful block” value amounted to 100%. Moreover, in test [3], the “Duration of Effective Block, EPT” value turned out to be 190 ± 56 min. Also, the “Duration of block, thermal nociception” value in test [4] worked out at 104 ± 18 min. Also, the “Duration of Effective Block, PPR” value in test [5] amounted to 162 ± 44 min.

Consider `COc1cc(CNC(=O)CCCC/C=C/C(C)C)ccc1O` [capsaicin, trans-8-methyl-N-vanillyl-6-nonenamide], for which the “Duration of prolonged block” value in test [6] fell in the range of 3 to 4 days. Besides, in test [7], the “Dose required for prolonged block with TTX, fold below threshold for block from the vanilloid alone” value is given as “more than 5 fold” and the “Duration of prolonged block” value is reported as 2 days.

Regarding `Oc1cc2c(cc1O)CN(C(=S)NCCc1ccc(Cl)cc1)CCC2` [capsazepine], in test [7], the “Reversal of established block from vanilloid-site 1 toxin combination” value is recorded as “reverses established block”.

`C=C(C)C12CC(C)C34OC(Cc5ccccc5)(OC1C3C=C(COC(=O)Cc1ccc(O)c(OC)c1)CC1(O)C(=O)C(C)=CC14)O2` (centres unmarked) [resiniferotoxin]: in test [6], the “Duration of prolonged block” value was 3 to 4 days. For the same compound, in test [7], the “Dose required for prolonged block with TTX, fold below threshold for block from the vanilloid alone” value was “more than 5 fold” and the “Duration of prolonged block” value stood at 2 days.
